Results: patent US20120029187A1, “HALOALKYLSULFONANILIDE DERIVATIVE” (Nissan Chemical Industries, Ltd., priority 2009, published 2012)

Key:
Type in all cases: in vivo
barnyardgrass [1] = experiment: Test Example 1: herbicidal effects in preemergence treatment under submerged conditions; details: dose 2.52 g/a
Procedure, shortened: (§1)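 Score 0–5 by mortality (5: ≥90%; 0: <5%), read 3 weeks post-application. Paddy-type cups: alluvial soil under 4 cm water, weeds seeded plus transplanted 2.5-leaf rice; diluted EC dosed onto water surface same day as sowing, g/a basis; greenhouse 25 to 30° C.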

bulrush [2] = experiment: as above; details: dose 2.52 g/a
Procedure, shortened: as §1

ducksalad [3] = experiment: as above; details: dose 2.52 g/a
Procedure, shortened: as §1

transplanted rice = experiment: Test Example 1: preemergence treatment under submerged conditions, effect on crop; details: dose 2.52 g/a
Procedure, shortened: as §1

barnyardgrass [4] = experiment: Test Example 2: herbicidal effects during the vegetation period under submerged conditions; details: treatment during the vegetation period under submerged conditions; dose 2.52 g/a
Procedure, shortened: (§2)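 Barnyardgrass, bulrush and ducksalad were co-sown in alluvial soil flooded to 4 cm and grown in a greenhouse at 25 to 30° C. At the 1- or 2-leaf stage, water-diluted emulsifiable concentrates went onto the water surface at set doses (g/a). Herbicidal effect was scored three weeks later on a graded scale.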

bulrush [5] = experiment: as above; details: treatment during the vegetation period under submerged conditions; dose 2.52 g/a
Procedure, shortened: as §2

ducksalad [6] = experiment: as above; details: treatment during the vegetation period under submerged conditions; dose 2.52 g/a
Procedure, shortened: as §2

Italian ryegrass [7] = experiment: Test Example 3: herbicidal effects in soil treatment; details: dose 3.2 g/a
Procedure, shortened: (§3)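 Seeds were sown in sterilized diluvial soil and covered with about 1.5 cm of soil. Compounds, formulated as emulsifiable concentrates and diluted with water, were sprayed evenly over the soil surface at set doses in g/a. Herbicidal effect was scored on a rating scale three weeks later.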

barnyardgrass [8] = experiment: as above; details: dose 3.2 g/a
Procedure, shortened: as §3

beadstraw [9] = experiment: as above; details: dose 3.2 g/a
Procedure, shortened: as §3

common chickweed [10] = experiment: as above; details: dose 3.2 g/a
Procedure, shortened: as §3

common lambsquater [11] = experiment: as above; details: dose 3.2 g/a
Procedure, shortened: as §3

common ragweed [12] = experiment: as above; details: dose 3.2 g/a
Procedure, shortened: as §3

giant foxtail [13] = experiment: as above; details: dose 3.2 g/a
Procedure, shortened: as §3

large crabgrass [14] = experiment: as above; details: dose 3.2 g/a
Procedure, shortened: as §3

posumbu knotweed [15] = experiment: as above; details: dose 3.2 g/a
Procedure, shortened: as §3

redroot pigweed [16] = experiment: as above; details: dose 3.2 g/a
Procedure, shortened: as §3

velvetleaf [17] = experiment: as above; details: dose 3.2 g/a
Procedure, shortened: as §3

water foxtail [18] = experiment: as above; details: dose 3.2 g/a
Procedure, shortened: as §3

wild oat [19] = experiment: as above; details: dose 3.2 g/a
Procedure, shortened: as §3

Italian ryegrass [20] = experiment: Test Example 4: herbicidal effect in foliage treatment; details: dose 3.2 g/a
Procedure, shortened: (§4)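 Herbicidal effect was rated on an evaluation scale three weeks after treatment. Plants had been raised 14 days at 25 to 30° C in sterilized diluvial soil, then received foliar sprays of emulsifiable concentrate diluted in water at predetermined doses expressed as g per are.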

barnyardgrass [21] = experiment: as above; details: dose 3.2 g/a
Procedure, shortened: as §4

beadstraw [22] = experiment: as above; details: dose 3.2 g/a
Procedure, shortened: as §4

common chickweed [23] = experiment: as above; details: dose 3.2 g/a
Procedure, shortened: as §4

common lambsquater [24] = experiment: as above; details: dose 3.2 g/a
Procedure, shortened: as §4

common ragweed [25] = experiment: as above; details: dose 3.2 g/a
Procedure, shortened: as §4

giant foxtail [26] = experiment: as above; details: dose 3.2 g/a
Procedure, shortened: as §4

large crabgrass [27] = experiment: as above; details: dose 3.2 g/a
Procedure, shortened: as §4

posumbu knotweed [28] = experiment: as above; details: dose 3.2 g/a
Procedure, shortened: as §4

redroot pigweed [29] = experiment: as above; details: dose 3.2 g/a
Procedure, shortened: as §4

velvetleaf [30] = experiment: as above; details: dose 3.2 g/a
Procedure, shortened: as §4

water foxtail [31] = experiment: as above; details: dose 3.2 g/a
Procedure, shortened: as §4

wild oat [32] = experiment: as above; details: dose 3.2 g/a
Procedure, shortened: as §4

[33] = three weeks after the application

## CC1(C)OCN(Cc2ccccc2N(S(=O)(=O)C(F)(F)F)S(=O)(=O)C(F)(F)F)C(=O)C1F (stereo not drawn) [II-37]
Barnyardgrass [1]
  A: barnyardgrass, herbicidal effect (evaluation scale 0-5): 5 (mortality of 90% or above (nearly complete death))
Bulrush [2]
  B: bulrush, herbicidal effect (evaluation scale 0-5): 5 (mortality of 90% or above (nearly complete death))
Ducksalad [3]
  C: ducksalad, herbicidal effect (evaluation scale 0-5): 5 (mortality of 90% or above (nearly complete death))
Transplanted rice
  a: transplanted rice, effect on crop (evaluation scale 0-5): 2 (mortality of at least 20% and less than 40%)
Barnyardgrass [4]
  A: barnyardgrass, herbicidal effect (evaluation scale 0-5): 5 (mortality of 90% or above (nearly complete death))
Bulrush [5]
  B: bulrush, herbicidal effect (evaluation scale 0-5): 5 (mortality of 90% or above (nearly complete death))
Ducksalad [6]
  C: ducksalad, herbicidal effect (evaluation scale 0-5): 5 (mortality of 90% or above (nearly complete death))
Italian ryegrass [7]
  H: Italian ryegrass, herbicidal effect (evaluation scale 0-5): 0 (mortality of less than 5% (almost ineffective))
Barnyardgrass [8]
  A: barnyardgrass, herbicidal effect (evaluation scale 0-5): 5 (mortality of 90% or above (nearly complete death))
Beadstraw [9]
  O: beadstraw, herbicidal effect (evaluation scale 0-5): 4 (mortality of at least 70% and less than 90%)
Common chickweed [10]
  N: common chickweed, herbicidal effect (evaluation scale 0-5): 2 (mortality of at least 20% and less than 40%)
Common lambsquater [11]
  L: common lambsquater, herbicidal effect (evaluation scale 0-5): 0 (mortality of less than 5% (almost ineffective))
Common ragweed [12]
  J: common ragweed, herbicidal effect (evaluation scale 0-5): 5 (mortality of 90% or above (nearly complete death))
Giant foxtail [13]
  E: giant foxtail, herbicidal effect (evaluation scale 0-5): 3 (mortality of at least 40% and less than 70%)
Large crabgrass [14]
  D: large crabgrass, herbicidal effect (evaluation scale 0-5): 5 (mortality of 90% or above (nearly complete death))
Posumbu knotweed [15]
  M: posumbu knotweed, herbicidal effect (evaluation scale 0-5): 0 (mortality of less than 5% (almost ineffective))
Redroot pigweed [16]
  K: redroot pigweed, herbicidal effect (evaluation scale 0-5): 3 (mortality of at least 40% and less than 70%)
Velvetleaf [17]
  I: velvetleaf, herbicidal effect (evaluation scale 0-5): 0 (mortality of less than 5% (almost ineffective))
Water foxtail [18]
  G: water foxtail, herbicidal effect (evaluation scale 0-5): 5 (mortality of 90% or above (nearly complete death))
Wild oat [19]
  F: wild oat, herbicidal effect (evaluation scale 0-5): 4 (mortality of at least 70% and less than 90%)
Italian ryegrass [20]; three weeks after application
  H: Italian ryegrass, herbicidal effect: 3 (mortality of at least 40% and less than 70%)
Barnyardgrass [21]; three weeks after application
  A: barnyardgrass, herbicidal effect: 5 (mortality of 90% or above (nearly complete death))
Beadstraw [22]; three weeks after application
  O: beadstraw, herbicidal effect: 4 (mortality of at least 70% and less than 90%)
Common chickweed [23]; three weeks after application
  N: common chickweed, herbicidal effect: 4 (mortality of at least 70% and less than 90%)
Common lambsquater [24]; three weeks after application
  L: common lambsquater, herbicidal effect: 2 (mortality of at least 20% and less than 40%)
Common ragweed [25]; three weeks after application
  J: common ragweed, herbicidal effect: 4 (mortality of at least 70% and less than 90%)
Giant foxtail [26]; three weeks after application
  E: giant foxtail, herbicidal effect: 3 (mortality of at least 40% and less than 70%)
Large crabgrass [27]; three weeks after application
  D: large crabgrass, herbicidal effect: 4 (mortality of at least 70% and less than 90%)
Posumbu knotweed [28]; three weeks after application
  M: posumbu knotweed, herbicidal effect: 3 (mortality of at least 40% and less than 70%)
Redroot pigweed [29]; three weeks after application
  K: redroot pigweed, herbicidal effect: 2 (mortality of at least 20% and less than 40%)
Velvetleaf [30]; three weeks after application
  I: velvetleaf, herbicidal effect: 3 (mortality of at least 40% and less than 70%)
Water foxtail [31]; three weeks after application
  G: water foxtail, herbicidal effect: 5 (mortality of 90% or above (nearly complete death))
Wild oat [32]; three weeks after application
  F: wild oat, herbicidal effect: 1 (mortality of at least 5% and less than 20%)

## O=C1CCSCN1Cc1ccccc1NS(=O)(=O)C(F)(F)F [II-78]
Barnyardgrass [1]
  A: barnyardgrass, herbicidal effect (evaluation scale 0-5): 5 (mortality of 90% or above (nearly complete death))
Bulrush [2]
  B: bulrush, herbicidal effect (evaluation scale 0-5): 5 (mortality of 90% or above (nearly complete death))
Ducksalad [3]
  C: ducksalad, herbicidal effect (evaluation scale 0-5): 5 (mortality of 90% or above (nearly complete death))
Transplanted rice
  a: transplanted rice, effect on crop (evaluation scale 0-5): 0 (mortality of less than 5% (almost ineffective))
Barnyardgrass [4]
  A: barnyardgrass, herbicidal effect (evaluation scale 0-5): 5 (mortality of 90% or above (nearly complete death))
Bulrush [5]
  B: bulrush, herbicidal effect (evaluation scale 0-5): 5 (mortality of 90% or above (nearly complete death))
Ducksalad [6]
  C: ducksalad, herbicidal effect (evaluation scale 0-5): 5 (mortality of 90% or above (nearly complete death))
Italian ryegrass [7]
  herbicidal effect, H: Italian ryegrass: 5 (mortality of 90% or above (nearly complete death))
Barnyardgrass [8]
  herbicidal effect, A: barnyardgrass: 5 (mortality of 90% or above (nearly complete death))
Beadstraw [9]
  herbicidal effect, O: beadstraw: 0 (mortality of less than 5% (almost ineffective))
Common chickweed [10]
  herbicidal effect, N: common chickweed: 5 (mortality of 90% or above (nearly complete death))
Common lambsquater [11]
  herbicidal effect, L: common lambsquater: 4 (mortality of at least 70% and less than 90%)
Common ragweed [12]
  herbicidal effect, J: common ragweed: 4 (mortality of at least 70% and less than 90%)
Giant foxtail [13]
  herbicidal effect, E: giant foxtail: 5 (mortality of 90% or above (nearly complete death))
Large crabgrass [14]
  herbicidal effect, D: large crabgrass: 5 (mortality of 90% or above (nearly complete death))
Posumbu knotweed [15]
  herbicidal effect, M: posumbu knotweed: 4 (mortality of at least 70% and less than 90%)
Redroot pigweed [16]
  herbicidal effect, K: redroot pigweed: 3 (mortality of at least 40% and less than 70%)
Velvetleaf [17]
  herbicidal effect, I: velvetleaf: 5 (mortality of 90% or above (nearly complete death))
Water foxtail [18]
  herbicidal effect, G: water foxtail: 5 (mortality of 90% or above (nearly complete death))
Wild oat [19]
  herbicidal effect, F: wild oat: 0 (mortality of less than 5% (almost ineffective))
Italian ryegrass [20]; [33]
  H: Italian ryegrass, herbicidal effect: 5 (mortality of 90% or above (nearly complete death))
Barnyardgrass [21]; [33]
  A: barnyardgrass, herbicidal effect: 4 (mortality of at least 70% and less than 90%)
Beadstraw [22]; [33]
  O: beadstraw, herbicidal effect: 5 (mortality of 90% or above (nearly complete death))
Common chickweed [23]; [33]
  N: common chickweed, herbicidal effect: 4 (mortality of at least 70% and less than 90%)
Common lambsquater [24]; [33]
  L: common lambsquater, herbicidal effect: 4 (mortality of at least 70% and less than 90%)
Common ragweed [25]; [33]
  J: common ragweed, herbicidal effect: 4 (mortality of at least 70% and less than 90%)
Giant foxtail [26]; [33]
  E: giant foxtail, herbicidal effect: 4 (mortality of at least 70% and less than 90%)
Large crabgrass [27]; [33]
  D: large crabgrass, herbicidal effect: 4 (mortality of at least 70% and less than 90%)
Posumbu knotweed [28]; [33]
  M: posumbu knotweed, herbicidal effect: 4 (mortality of at least 70% and less than 90%)
Redroot pigweed [29]; [33]
  K: redroot pigweed, herbicidal effect: 4 (mortality of at least 70% and less than 90%)
Velvetleaf [30]; [33]
  I: velvetleaf, herbicidal effect: 5 (mortality of 90% or above (nearly complete death))
Water foxtail [31]; [33]
  G: water foxtail, herbicidal effect: 5 (mortality of 90% or above (nearly complete death))
Wild oat [32]; [33]
  F: wild oat, herbicidal effect: 0 (mortality of less than 5% (almost ineffective))
